Results: US4400394A, “Benzylidene derivatives” (priority 1975, dated 1983)

Experiments:
[1] = Acute toxicity in mice (LD 50, intraperitoneal); details: mouse, in vivo, ip, CD1 mice, deaths recorded 48 hours after administration, determined graphically
Procedure: I. Acute toxicity in mice
The compounds of the invention and the reference substances were administered intraperitoneally to CD1 mice. The 50% lethal dose (LD 50) was determined graphically. The number of dead animals 48 hours after intraperitoneal administration was recorded.

[2] = tested on: convulsions induced by bicuculline in mice; experiment: Antagonism to convulsions induced by bicuculline in mice (anti-bicuculline activity); assay type: in vivo; details: Mus musculus, ip, intraperitoneal, dose which protects 50% of the animals against the effect of bicuculline, read-out: Anti-bicuculline activity, AD 50 (intraperitoneal administration)
Procedure: II. GABA-animetic activity of the compounds (I)
The experimental method of Curtis, D. R., et al., Brain Res., 1971, 33, 57 and Perez de la Mora, N., Biochem. Pharmacol., 1973, 22, 2,635, was used.
The 50% active doses (AD 50), namely the doses which protect 50% of the animals against the effect of bicuculline, were evaluated for the substances studied.

epilepsy = details: cited from earlier work
[3] = oral or parenteral administration; cited from earlier work

SMILES: O=C(O)CCCN=C(c1ccccc1)c1cc(Cl)ccc1O [75,005]
- LD50 at 48 h [1]: 350 mg/kg
- ED50 [2]: 120 mg/kg

SMILES: O=C(O)CCCCN=C(c1ccccc1)c1ccccc1O [75,006]
- LD50 at 48 h [1]: 700 mg/kg
- ED50 [2]: 250 mg/kg

SMILES: O=C(O)CCCN=C(c1ccccc1)c1cc(F)ccc1O [75,010, Sodium 4-N-(α-phenyl-5-fluoro-2-hydroxy-benzylidenyl)-amino-butyrate]
- LD50 at 48 h [1]: 600 mg/kg
- ED50 [2]: 125 mg/kg

SMILES: O=C(O)CCCN=C(c1cc(F)ccc1O)c1ccccc1F [75,017]
- LD50 at 48 h [1]: 525 mg/kg
- ED50 [2]: 175 mg/kg

SMILES: O=C(O)CCN=C(c1ccccc1)c1ccccc1O [75,019]
- LD50 at 48 h [1]: 830 mg/kg
- ED50 [2]: 425 mg/kg

SMILES: O=C(O)CCCN=C(c1cc(F)ccc1O)c1ccccc1Cl [75,027]
- LD50 at 48 h [1]: 375 mg/kg
- ED50 [2]: 125 mg/kg

SMILES: Cc1ccccc1C(=NCCCC(=O)O)c1cc(F)ccc1O [75,029]
- LD50 at 48 h [1]: 475 mg/kg
- ED50 [2]: 250 mg/kg

SMILES: NC(=O)CN=C(c1ccccc1)c1ccccc1O [75,037]
- LD50 at 48 h [1]: 1350 mg/kg
- ED50 [2]: 20 mg/kg

SMILES: O=C(O)CCCN=C(c1cccc(F)c1)c1cc(F)ccc1O [75,044, Sodium 4-N-[α-(3-fluorophenyl)-5-fluoro-2-hydroxy-benzylidenyl]-amino-butyrate]
- LD50 at 48 h [1]: 850 mg/kg
- ED50 [2]: 250 mg/kg

SMILES: O=C(O)CCCN=C(c1ccc(F)cc1)c1cc(F)ccc1O [75,045, Sodium 4-N-[α-(4-fluorophenyl)-5-fluoro-2-hydroxy-benzylidenyl]-amino-butyrate]
- LD50 at 48 h [1]: 650 mg/kg
- ED50 [2]: 125 mg/kg

SMILES: O=C(O)CCCN=C(c1ccccc1O)c1ccccc1F [75,046]
- LD50 at 48 h [1]: 675 mg/kg
- ED50 [2]: 225 mg/kg

SMILES: Cc1ccc(O)c(C(=NCCCC(=O)O)c2ccccc2F)c1 [75,053]
- LD50 at 48 h [1]: 600 mg/kg
- ED50 [2]: 125 mg/kg

SMILES: O=C(O)CCCCCCCCCCN=C(c1ccccc1)c1cc(F)ccc1O [75,054]
- LD50 at 48 h [1]: 300 mg/kg
- ED50 [2]: 130 mg/kg

SMILES: O=C(O)CCCCCN=C(c1ccccc1)c1cc(F)ccc1O [75,059]
- LD50 at 48 h [1]: 800 mg/kg
- ED50 [2]: 200 mg/kg

SMILES: O=C(O)CCCCCN=C(c1ccccc1)c1ccccc1O [75,074]
- LD50 at 48 h [1]: 750 mg/kg
- ED50 [2]: 300 mg/kg

SMILES: O=C(O)CCCCCCCCCCN=C(c1ccccc1)c1ccccc1O [75,075, Sodium 11-N-(α-phenyl-2-hydroxy-benzylidenyl)-amino-undecamoate]
- LD50 at 48 h [1]: 210 mg/kg
- ED50 [2]: 100 mg/kg

SMILES: O=C(O)CCCN=C(c1ccccc1O)c1ccccc1Cl [75,078]
- LD50 at 48 h [1]: 350 mg/kg
- ED50 [2]: 110 mg/kg

SMILES: NC(=O)CN=C(c1ccccc1)c1cc(F)ccc1O [75,083]
- LD50 at 48 h [1]: 650 mg/kg
- ED50 [2]: 175 mg/kg

SMILES: O=C(O)CCCCCCCN=C(c1ccccc1)c1ccccc1O [75,100]
- LD50 at 48 h [1]: 600 mg/kg
- ED50 [2]: 300 mg/kg

SMILES: O=C(O)CCCN=C(c1ccc(Cl)cc1)c1cc(F)ccc1O [75,102]
- LD50 at 48 h [1]: 500 mg/kg
- ED50 [2]: 65 mg/kg

SMILES: COc1ccc(C(=NCCCC(=O)O)c2ccccc2)c(O)c1 [75,107]
- LD50 at 48 h [1]: 950 mg/kg
- ED50 [2]: 450 mg/kg

SMILES: COc1ccc(C(=NCCCC(=O)O)c2ccc(Cl)cc2)c(O)c1 [75,118]
- LD50 at 48 h [1]: 525 mg/kg
- ED50 [2]: 225 mg/kg

SMILES: Cc1ccc(O)c(C(=NCCCC(=O)O)c2ccccc2Cl)c1 [75,136]
- LD50 at 48 h [1]: 350 mg/kg
- ED50 [2]: 110 mg/kg

SMILES: NC(=O)CCCN=C(c1ccc(F)cc1)c1cc(F)ccc1O [75,166]
- LD50 at 48 h [1]: > 2000 mg/kg
- ED50 [2]: 180 mg/kg

SMILES: NC(=O)CCCN=C(c1ccccc1)c1cc(F)ccc1O [75,167]
- LD50 at 48 h [1]: > 2000 mg/kg
- ED50 [2]: 100 mg/kg

SMILES: CCOC(=O)CCCNC(=O)CCCN=C(c1ccccc1)c1cc(F)ccc1O [75,168]
- LD50 at 48 h [1]: 975 mg/kg
- ED50 [2]: 500 mg/kg

SMILES: NC(=O)CCCN=C(c1ccc(Cl)cc1)c1cc(F)ccc1O [76,002, 4-[(4-Chlorophenyl)-5-fluoro-2-hydroxy-benzylidenyl]-amino-butyramide]
- LD50 at 48 h [1]: 900 mg/kg
- ED50 [2]: 65 mg/kg

SMILES: O=C(CCCN=C(c1ccccc1)c1cc(F)ccc1O)NC1CC1 [76,010]
- LD50 at 48 h [1]: 1250 mg/kg
- ED50 [2]: 250 mg/kg

SMILES: O=C(CCCN=C(c1ccccc1)c1cc(F)ccc1O)NC1CCCC1 [76,011]
- LD50 at 48 h [1]: > 2000 mg/kg
- ED50 [2]: 365 mg/kg

SMILES: O=C(CCCN=C(c1ccccc1)c1cc(F)ccc1O)Nc1ccccc1 [76,012]
- LD50 at 48 h [1]: > 2000 mg/kg
- ED50 [2]: 500 mg/kg

SMILES: O=C(CCCN=C(c1ccccc1)c1cc(F)ccc1O)NCc1ccccc1 [76,013]
- LD50 at 48 h [1]: > 2000 mg/kg
- ED50 [2]: 200 mg/kg

SMILES: CN(C)C(=O)CCCN=C(c1ccccc1)c1cc(F)ccc1O [76,022]
- LD50 at 48 h [1]: 1400 mg/kg
- ED50 [2]: 350 mg/kg

SMILES: CCCCN(CCCC)C(=O)CCCN=C(c1ccccc1)c1cc(F)ccc1O [76,023]
- LD50 at 48 h [1]: 1700 mg/kg
- ED50 [2]: 300 mg/kg

SMILES: O=C(CCCN=C(c1ccccc1)c1cc(F)ccc1O)NC1CCC1 [76,030]
- LD50 at 48 h [1]: > 2000 mg/kg
- ED50 [2]: 200 mg/kg

SMILES: CC(C)NC(=O)CCCN=C(c1ccccc1)c1cc(F)ccc1O [76,031]
- LD50 at 48 h [1]: > 2000 mg/kg
- ED50 [2]: 500 mg/kg

SMILES: CCCC(CCN=C(c1ccccc1)c1cc(F)ccc1O)C(=O)O (stereo not drawn) [76,085]
- LD50 at 48 h [1]: 340 mg/kg
- ED50 [2]: 170 mg/kg

SMILES: NC(=O)CCCN=C(c1cc(F)ccc1O)c1ccccc1Cl [76,086]
- LD50 at 48 h [1]: 235 mg/kg
- ED50 [2]: 50 mg/kg

SMILES: NC(=O)CCCN=C(c1cccc(Cl)c1)c1cc(F)ccc1O [76,091]
- LD50 at 48 h [1]: 600 mg/kg
- ED50 [2]: 300 mg/kg

SMILES: NCCCC(=O)O [GABA, γ-Aminobutyric acid]
- side-effects (in words) (epilepsy; administration of GABA): substantial sideeffects (hypotension, bradycardia, and sedation)
- use in epilepsy (in words) (epilepsy; some cases of epilepsy, very large quantities needed): used with success in some cases of epilepsy
- crossing of the blood-brain barrier (in words) [3]: does not easily cross the blood-brain barrier
- LD50 at 48 h [1]: > 4000 mg/kg
- ED50 [2]: > 4000 mg/kg

SMILES: NC(=O)CN1CCCC1=O [PIRACETAM, reference compound]
- LD50 at 48 h [1]: > 4000 mg/kg
- ED50 [2]: 500 mg/kg

SMILES: O=C(O)CCCN=C(c1ccccc1)c1ccccc1O [SL 74,227]
- LD50 at 48 h [1]: 975 mg/kg
- ED50 [2]: 500 mg/kg

SMILES: O=C(O)CCCCN=C(c1ccccc1)c1cc(F)ccc1O [SL 75,106]
- LD50 at 48 h [1]: 600 mg/kg
- ED50 [2]: 120 mg/kg
